Here are results for 25 molecules from patent publication US20230399312A1, “SUBSTITUTED PYRIMIDINES AND METHODS OF USE” (THERAVANCE BIOPHARMA R&D IP, LLC, priority 2020, published 2023).

Experiment [1] addresses T1, recombinant human ALK5 (TGF-βR1) protein (Homo sapiens, UniProt P36897).
T1 construct: purchased Life Technologies PR9075A
T1 sequence (P36897 34-503): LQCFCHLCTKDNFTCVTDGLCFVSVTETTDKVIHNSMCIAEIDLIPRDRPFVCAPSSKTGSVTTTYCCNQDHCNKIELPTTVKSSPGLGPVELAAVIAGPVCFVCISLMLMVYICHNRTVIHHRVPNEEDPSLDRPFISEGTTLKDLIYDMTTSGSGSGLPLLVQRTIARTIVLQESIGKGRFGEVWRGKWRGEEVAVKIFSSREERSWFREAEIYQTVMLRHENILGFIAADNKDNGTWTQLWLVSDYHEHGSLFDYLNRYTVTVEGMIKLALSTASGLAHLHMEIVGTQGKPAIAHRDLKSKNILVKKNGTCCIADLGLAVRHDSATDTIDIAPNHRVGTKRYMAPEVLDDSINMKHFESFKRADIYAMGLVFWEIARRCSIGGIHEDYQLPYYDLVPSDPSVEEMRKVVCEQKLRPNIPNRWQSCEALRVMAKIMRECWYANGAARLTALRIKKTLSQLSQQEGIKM
Kind of experiment: Biochemical ALK5 (TGF-βR1) assay to measure pKi (LANCE Ultra ULight kinase assay). To be noted: apparent pKi, converted from pIC50 by Cheng-Prusoff. A digest of the protocol:
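Dose-response series of each compound were preincubated with the kinase for 60 minutes at room temperature. Phosphorylation proceeded for 60 minutes at 37 °C after ATP addition, was quenched with EDTA, and was detected with a europium anti-phospho-Thr1342 antibody by TR-FRET; pKi was calculated from pIC50.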

Experiment [2] has as its system TGF-β-stimulated SMAD3 phosphorylation in BEAS-2B cells. Nature of the experiment: Cellular ALK5 potency assay, inhibition of TGF-β stimulated pSMAD3 formation in BEAS-2B cells. Format: cell-based. As to conditions: Homo sapiens, pSMAD3, TGF-β 10 ng/mL, read-out: BEAS2B pIC50 (converted). Put shortly:
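BEAS-2B cells, HBSS/25 mM HEPES/1% BSA buffer; cpd 1 h, 37 °C; TGF-β 10 ng/mL final, 30 min; lysis, AlphaLISA pSMAD3 read next day. pIC50 vs stimulated no-compound baseline.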

For `Cc1cccc(-c2nccc(Nc3ccnc(Nc4ccc(N5C[C@H]6CC[C@@H](C5)N6)cc4)n3)n2)n1` [Compound 34, N4-[2-(6-methyl-2-pyridyl)pyrimidin-4-yl]-N2-[4-[rac-(1S,5R)-3,8-diazabicyclo[3.2.1]octan-3-yl]phenyl]pyrimidine-2,4-diamine], the Ki in experiment [1] was 0.0398 to 0.316 nM. In experiment [2], the IC50 is 25.1 to 158 nM.
As for `Fc1ccc(-c2nccc(Nc3ccnc(Nc4ccc(N5CCOCC5)cc4)n3)n2)c(F)c1` [Compound 35, N4-[2-(2,4-difluorophenyl)pyrimidin-4-yl]-N2-(4-morpholinophenyl) pyrimidine-2,4-diamine], in experiment [1], the Ki was 3.98 to 31.6 nM. Further, the IC50 in experiment [2] was 25.1 to 158 nM.
For `Cc1cccc(-c2nccc(Nc3ccnc(Nc4ccc(-c5cnn(CCO)c5)cc4)n3)n2)n1` [Compound 36, 2-[4-[4-[[4-[[2-(6-methyl-2-pyridyl)pyrimidin-4-yl]amino]pyrimidin-2-yl]amino]phenyl]pyrazol-1-yl]ethanol] the same measures were 0.398 to 3.16 nM and 25.1 to 158 nM.
Turning to `Cc1cccc(-c2nccc(Nc3ccnc(Nc4ccc(N5CCN(C(=O)CSC(CCO)C(=O)O)CC5)cc4)n3)n2)n1` (centres unmarked) [Compound 37, 4-hydroxy-2-[2-[4-[4-[[4-[[2-(6-methyl-2-pyridyl)pyrimidin-4-yl]amino]pyrimidin-2-yl]amino]phenyl]piperazin-1-yl]-2-oxo-ethyl]sulfanyl-butanoic acid], the Ki in experiment [1] is 0.0398 to 0.316 nM. Besides, in experiment [2], the IC50 is 200 to 1260 nM.
As to `CCN1CCN(S(=O)(=O)c2ccc(Nc3nccc(Nc4ccnc(-c5cccc(C)n5)n4)n3)cc2)CC1` [Compound 38, N2-[4-(4-ethylpiperazin-1-yl)sulfonylphenyl]-N4-[2-(6-methyl-2-pyridyl)pyrimidin-4-yl]pyrimidine-2,4-diamine], in experiment [1], the Ki was 0.0398 to 0.316 nM. The IC50 in experiment [2] is 25.1 to 158 nM.
For the molecule `Cc1cccc(-c2nccc(Nc3ccnc(Nc4cccc(CN5CCSCC5)c4)n3)n2)n1` [Compound 39, N4-[2-(6-methyl-2-pyridyl)pyrimidin-4-yl]-N2-[3-(thiomorpholinomethyl)phenyl] pyrimidine-2,4-diamine], the Ki in experiment [1] was 0.0398 to 0.316 nM. For the same molecule, the IC50 in experiment [2] is 25.1 to 158 nM.
The like results for `Cc1cccc(-c2nccc(Nc3ccnc(Nc4csc(C(=O)NC5(CO)CCNC5)c4)n3)n2)n1` (centres unmarked) [Compound 40, N-[3-(hydroxymethyl)pyrrolidin-3-yl]-4-[[4-[[2-(6-methyl-2-pyridyl)pyrimidin-4-yl]amino]pyrimidin-2-yl]amino]thiophene-2-carboxamide] were, in that order, 0.0398 to 0.316 nM and 25.1 to 158 nM.
Consider `Cc1cccc(-c2nccc(Nc3ccnc(Nc4ccc(N5CCNCC5CC(=O)OCC(C)C)cc4)n3)n2)n1` (centres unmarked) [Compound 41, isobutyl 2-[1-[4-[[4-[[2-(6-methyl-2-pyridyl)pyrimidin-4-yl]amino]pyrimidin-2-yl]amino]phenyl]piperazin-2-yl]acetate], for which the Ki in experiment [1] is 0.0398 to 0.316 nM. The IC50 in experiment [2] was 25.1 to 158 nM.
As to `Cc1cccc(-c2nccc(Nc3ccnc(Nc4nc(C(=O)NCC5CNC5)cs4)n3)n2)n1` [Compound 42, N-(azetidin-3-ylmethyl)-2-[[4-[[2-(6-methyl-2-pyridyl)pyrimidin-4-yl]amino]pyrimidin-2-yl]amino]thiazole-4-carboxamide], the Ki in experiment [1] is at most 0.0316 nM. The IC50 in experiment [2] was 25.1 to 158 nM.
As for `Cc1cccc(-c2nccc(Nc3ccnc(Nc4ccccc4)n3)n2)n1` [Compound 43, N4-[2-(6-methyl-2-pyridyl)pyrimidin-4-yl]-N2-phenyl-pyrimidine-2,4-diamine], the Ki in experiment [1] is 0.398 to 3.16 nM. The IC50 in experiment [2] is at most 20 nM.
`Cc1cccc(-c2nccc(Nc3ccnc(Nc4nc(C(=O)NC5CNC5)cs4)n3)n2)n1` [Compound 44, N-(azetidin-3-yl)-2-[[4-[[2-(6-methyl-2-pyridyl)pyrimidin-4-yl]amino]pyrimidin-2-yl]amino]thiazole-4-carboxamide]: in experiment [1], the Ki was 0.0398 to 0.316 nM. Also, the IC50 in experiment [2] was 25.1 to 158 nM.
The like results for `Cc1cccc(-c2nccc(Nc3ccnc(Nc4cccc(CO)c4)n3)n2)n1` [Compound 45, [3-[[4-[[2-(6-methyl-2-pyridyl)pyrimidin-4-yl]amino]pyrimidin-2-yl]amino]phenyl]methanol] were, in that order, 0.0398 to 0.316 nM and at most 20 nM.
On to `Cc1cccc(-c2nccc(Nc3ccnc(Nc4ccc(N5CCN[C@H](CO)C5)cc4)n3)n2)n1` [Compound 46, [(2S)-4-[4-[[4-[[2-(6-methyl-2-pyridyl)pyrimidin-4-yl]amino]pyrimidin-2-yl]amino]phenyl]piperazin-2-yl]methanol], for which the Ki in experiment [1] is at most 0.0316 nM. Moreover, the IC50 in experiment [2] is 25.1 to 158 nM.
For `CCOC(=O)Cn1cc(-c2ccc(Nc3nccc(Nc4ccnc(-c5cccc(C)n5)n4)n3)cc2)cn1` [Compound 47, ethyl 2-[4-[4-[[4-[[2-(6-methyl-2-pyridyl)pyrimidin-4-yl]amino]pyrimidin-2-yl]amino]phenyl]pyrazol-1-yl]acetate] the same measures were 0.398 to 3.16 nM and 25.1 to 158 nM.
For `Cc1cccc(-c2nccc(Nc3ccnc(Nc4ccc(Cl)c(CN5CCNCC5)c4)n3)n2)n1` [Compound 49, N2-[4-chloro-3-(piperazin-1-ylmethyl)phenyl]-N4-[2-(6-methyl-2-pyridyl)pyrimidin-4-yl]pyrimidine-2,4-diamine], the Ki in experiment [1] is 0.0398 to 0.316 nM. Further, the IC50 in experiment [2] is 25.1 to 158 nM.
For `Cc1cccc(-c2nccc(Nc3ccnc(Nc4ccc(CN5CCC(C(=O)OC6CNC6)C5)cc4)n3)n2)n1` (centres unmarked) [Compound 50, azetidin-3-yl 1-[[4-[[4-[[2-(6-methyl-2-pyridyl)pyrimidin-4-yl]amino]pyrimidin-2-yl]amino]phenyl]methyl] pyrrolidine-3-carboxylate] the same measures were 0.0398 to 0.316 nM and 25.1 to 158 nM.
`Cc1cccc(-c2nccc(Nc3ccnc(Nc4ccc(C(=O)O[C@H]5CCN(C)C5)cc4)n3)n2)n1` [Compound 51, [(3S)-1-methylpyrrolidin-3-yl] 4-[[4-[[2-(6-methyl-2-pyridyl)pyrimidin-4-yl]amino]pyrimidin-2-yl]amino]benzoate]: the Ki in experiment [1] is 0.0398 to 0.316 nM. Moreover, the IC50 in experiment [2] is 25.1 to 158 nM.
As for `Cc1cccc(-c2nccc(Nc3ccnc(Nc4ccc(C(=O)O[C@@H]5CCN(C)C5)s4)n3)n2)n1` [Compound 52, [(3R)-1-methylpyrrolidin-3-yl] 5-[[4-[[2-(6-methyl-2-pyridyl)pyrimidin-4-yl]amino]pyrimidin-2-yl]amino]thiophene-2-carboxylate], the Ki in experiment [1] was 0.0398 to 0.316 nM. For the same molecule, the IC50 in experiment [2] was 25.1 to 158 nM.
Turning to `Cc1cccc(-c2nccc(Nc3ccnc(Nc4cnn(CCN)c4)n3)n2)n1` [Compound 53, N2-[1-(2-aminoethyl)pyrazol-4-yl]-N4-[2-(6-methyl-2-pyridyl)pyrimidin-4-yl]pyrimidine-2,4-diamine], in experiment [1], the Ki was 0.0398 to 0.316 nM. Also, in experiment [2], the IC50 is 200 to 1260 nM.
For `Cc1cccc(-c2nccc(Nc3ccnc(Nc4ccc(OCCO)cc4)n3)n2)n1` [Compound 54, 2-[4-[[4-[[2-(6-methyl-2-pyridyl)pyrimidin-4-yl]amino]pyrimidin-2-yl]amino]phenoxy]ethanol] the same measures were 0.398 to 3.16 nM and 25.1 to 158 nM.
With `Cc1cccc(-c2nccc(Nc3ccnc(Nc4ccc(N5CCCC(C(=O)OC6CCN(C)C6)C5)cc4)n3)n2)n1` (centres unmarked) [Compound 55, (1-methylpyrrolidin-3-yl) 1-[4-[[4-[[2-(6-methyl-2-pyridyl)pyrimidin-4-yl]amino]pyrimidin-2-yl]amino]phenyl]piperidine-3-carboxylate], the Ki in experiment [1] is 0.0398 to 0.316 nM. In addition, in experiment [2], the IC50 was 25.1 to 158 nM.
For `Cc1cccc(-c2nccc(Nc3ccnc(Nc4ccc(-c5cnn(C)c5)cc4)n3)n2)n1` [Compound 56, N2-[4-(1-methylpyrazol-4-yl)phenyl]-N4-[2-(6-methyl-2-pyridyl)pyrimidin-4-yl]pyrimidine-2,4-diamine], the Ki in experiment [1] is 0.398 to 3.16 nM. Besides, in experiment [2], the IC50 was 25.1 to 158 nM.
The like results for `Cc1cccc(-c2nccc(Nc3ccnc(Nc4ccc(N5CCNCC5)c(CC(=O)OCC5CNC5)c4)n3)n2)n1` [Compound 57, azetidin-3-ylmethyl 2-[5-[[4-[[2-(6-methyl-2-pyridyl)pyrimidin-4-yl]amino]pyrimidin-2-yl]amino]-2-piperazin-1-yl-phenyl]acetate] were, in that order, 0.0398 to 0.316 nM and 200 to 1260 nM.
On to `Cc1cccc(-c2nccc(Nc3ccnc(Nc4ccc(NC(=O)C5(O)CCNC5)cc4)n3)n2)n1` (centres unmarked) [Compound 58, 3-hydroxy-N-[4-[[4-[[2-(6-methyl-2-pyridyl)pyrimidin-4-yl]amino]pyrimidin-2-yl]amino]phenyl]pyrrolidine-3-carboxamide], for which the Ki in experiment [1] is 0.0398 to 0.316 nM. Further, the IC50 in experiment [2] is at most 20 nM.
`COC(=O)C1CCN(c2ccc(Nc3nccc(Nc4ccnc(-c5cccc(C)n5)n4)n3)cc2)CC1` [Compound 60, methyl 1-[4-[[4-[[2-(6-methyl-2-pyridyl)pyrimidin-4-yl]amino]pyrimidin-2-yl]amino]phenyl]piperidine-4-carboxylate]: in experiment [1], the Ki was 0.0398 to 0.316 nM. Also, in experiment [2], the IC50 was 25.1 to 158 nM.
